Assay results: US12459951B2, “Compounds that interact with RAS superfamily proteins for treatment of cancers, inflammatory diseases, rasopathies, and fibrotic disease” (SHY Therapeutics, LLC, priority 2022, dated 2025)
Like-named read-outs stand apart in the source and are kept apart here.

System: MiaPaca-2 (expressing KRAS G12C mutant)
Assay: Proliferation Assay (Cell Viability Assay)
Format: cell-based
Settings: Homo sapiens, MIA PaCa-2
Outline: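 After 2–4 days' exposure at 37 °C, 5% CO2 to a single 10 μM final concentration or a dilution series (IC50), percent proliferation inhibition was derived from CellTiter 96 Aqueous One viability readings. The medium contained 0.3% DMSO and 10% FBS. KRAS G12C MiaPaca-2 cells were plated at 2000–5000/well the day before.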

[1] = read-out: Proliferation in MiaPaca-2: IC50
[2] = Proliferation assay, MiaPaca-2, read-out: MiaPaca-2 IC50 (nM) Pancreatic

| IC50 [1] [nM] | IC50 [2] [nM] | Structure (SMILES) |
| --- | --- | --- |
| > 1000 | – | COc1cccc(-c2cn3nc(-c4nccn4C)nc(N[C@@H]4CC[C@H]4OC)c3c2-c2ccccc2)c1C (racemic) [Compound 272, rac 6-(3-Methoxy-2-methylphenyl)-N-((1R,2R)-2-methoxycyclobutyl)-2-(1-methyl-1H-imidazol-2-yl)-5-phenylpyrrolo[2,1-f][1,2,4]triazin-4-amine] |
| > 1000 | – | COc1cccc(Nc2nc(-c3nccn3C)nn3ccc(C)c23)n1 [Compound 38, N-(6-Methoxypyridin-2-yl)-5-methyl-2-(1-methyl-1H-imidazol-2-yl)pyrrolo[2,1-f][1,2,4]triazin-4-amine] |
| > 1000 | – | COc1cccc(Nc2nc(-c3nccn3C)nn3ccc(-c4ccccc4)c23)n1 [Compound 40, N-(6-Methoxypyridin-2-yl)-2-(1-methyl-1H-imidazol-2-yl)-5-phenylpyrrolo[2,1-f][1,2,4]triazin-4-amine] |
| > 1000 | – | Cn1ccnc1-c1nc(OCCN2CCCC2)c2c(-c3ccccc3)ccn2n1 [Compound 41, 2-(1-Methyl-1H-imidazol-2-yl)-5-phenyl-4-(2-(pyrrolidin-1-yl)ethoxy)pyrrolo[2,1-f][1,2,4]triazine] |
| < 150 | – | COc1cc(Nc2nc(-c3nccn3C)nn3cc(-c4cccnc4)c(C)c23)ncn1 [Compound 48, N-(6-Methoxypyrimidin-4-yl)-5-methyl-2-(1-methyl-1H-imidazol-2-yl)-6-(pyridin-3-yl)pyrrolo[2,1-f][1,2,4]triazin-4-amine] |
| < 150 | – | COc1cc(Nc2nc(-c3nccn3C)nn3cc(-c4ccncc4)c(C)c23)ncn1 [Compound 49, N-(6-Methoxypyrimidin-4-yl)-5-methyl-2-(1-methyl-1H-imidazol-2-yl)-6-(pyridin-4-yl)pyrrolo[2,1-f][1,2,4]triazin-4-amine] |
| < 150 | – | COc1cc(-c2cn3nc(-c4nccn4C)nc(Nc4cc(OC)ncn4)c3c2C)ccn1 [Compound 50, 6-(2-Methoxypyridin-4-yl)-N-(6-methoxypyrimidin-4-yl)-5-methyl-2-(1-methyl-1H-imidazol-2-yl)pyrrolo[2,1-f][1,2,4]triazin-4-amine] |
| < 150 | – | Cc1c(-c2ccn(C(C)C)n2)cn2nc(-c3nccn3C)nc(Nc3cc(C4CC4)n[nH]3)c12 [Compound 68, N-(3-Cyclopropyl-1H-pyrazol-5-yl)-6-(1-isopropyl-1H-pyrazol-3-yl)-5-methyl-2-(1-methyl-1H-imidazol-2-yl)pyrrolo[2,1-f][1,2,4]triazin-4-amine] |
| < 150 | – | COc1cncnc1Nc1nc(-c2nccn2C)nn2cc(-c3ccn(C(C)C)n3)c(C)c12 [Compound 73, 6-(1-Isopropyl-1H-pyrazol-3-yl)-N-(5-methoxypyrimidin-4-yl)-5-methyl-2-(1-methyl-1H-imidazol-2-yl)pyrrolo[2,1-f][1,2,4]triazin-4-amine] |
| 150 to 500 | – | COc1ccc(Nc2nc(-c3nccn3C)nn3cc(-c4ccn(C(C)C)n4)c(C)c23)nn1 [Compound 74, 6-(1-Isopropyl-1H-pyrazol-3-yl)-N-(6-methoxypyridazin-3-yl)-5-methyl-2-(1-methyl-1H-imidazol-2-yl)pyrrolo[2,1-f][1,2,4]triazin-4-amine] |
| < 150 | – | COc1cc(Nc2nc(-c3nccn3C)nn3cc(-c4ccn(C)n4)c(C)c23)ncc1-n1cnc(C)c1 [Compound 244, N-(4-Methoxy-5-(4-methyl-1H-imidazol-1-yl)pyridin-2-yl)-5-methyl-2-(1-methyl-1H-imidazol-2-yl)-6-(1-methyl-1H-pyrazol-3-yl)pyrrolo[2,1-f][1,2,4]triazin-4-amine] |
| < 150 | – | Cc1c(-c2ccn(C)n2)cn2nc(-c3nccn3C)nc(Nc3cc(-n4ccnc4)ccn3)c12 [Compound 245, N-(4-(1H-imidazol-1-yl)pyridin-2-yl)-5-methyl-2-(1-methyl-1H-imidazol-2-yl)-6-(1-methyl-1H-pyrazol-3-yl)pyrrolo[2,1-f][1,2,4]triazin-4-amine] |
| 150 to 500 | – | Cc1c(-c2ccn(C)n2)cn2nc(-c3nccn3C)nc(Nc3cc(-n4ccnc4C)ccn3)c12 [Compound 246, 5-Methyl-N-(4-(2-methyl-1H-imidazol-1-yl)pyridin-2-yl)-2-(1-methyl-1H-imidazol-2-yl)-6-(1-methyl-1H-pyrazol-3-yl)pyrrolo[2,1-f][1,2,4]triazin-4-amine] |
| 510 to 1000 | – | Cc1c(-c2ccn(C)n2)cn2nc(-c3nccn3C)nc(Nc3ccc(N4CCOCC4)cn3)c12 [Compound 247, 5-Methyl-2-(1-methyl-1H-imidazol-2-yl)-6-(1-methyl-1H-pyrazol-3-yl)-N-(5-morpholinopyridin-2-yl)pyrrolo[2,1-f][1,2,4]triazin-4-amine] |
| < 150 | – | Cc1c(-c2ccn(C)n2)cn2nc(-c3nccn3C)nc(Nc3cc(-c4ccccn4)ccn3)c12 [Compound 248, N-([2,4′-Bipyridin]-2′-yl)-5-methyl-2-(1-methyl-1H-imidazol-2-yl)-6-(1-methyl-1H-pyrazol-3-yl)pyrrolo[2,1-f][1,2,4]triazin-4-amine] |
| < 150 | – | Cc1c(-c2ccn(C)n2)cn2nc(-c3nccn3C)nc(Nc3ccc(-c4ccccn4)cn3)c12 [Compound 249, N-([2,3′-Bipyridin]-6′-yl)-5-methyl-2-(1-methyl-1H-imidazol-2-yl)-6-(1-methyl-1H-pyrazol-3-yl)pyrrolo[2,1-f][1,2,4]triazin-4-amine] |
| < 150 | – | Cc1c(-c2ccn(C)n2)cn2nc(-c3nccn3C)nc(Nc3cc(-c4cccnc4)ccn3)c12 [Compound 250, N-([3,4′-Bipyridin]-2′-yl)-5-methyl-2-(1-methyl-1H-imidazol-2-yl)-6-(1-methyl-1H-pyrazol-3-yl)pyrrolo[2,1-f][1,2,4]triazin-4-amine] |
| > 1000 | – | Cc1c(-c2ccn(C)n2)cn2nc(-c3nccn3C)nc(N3CCc4cc(C(F)(F)F)cnc43)c12 [Compound 251, 5-Methyl-2-(1-methyl-1H-imidazol-2-yl)-6-(1-methyl-1H-pyrazol-3-yl)-4-(5-(trifluoromethyl)-2,3-dihydro-1H-pyrrolo[2,3-b]pyridin-1-yl)pyrrolo[2,1-f][1,2,4]triazine] |
| < 150 | 10 to 50 | COc1cc(Nc2nc(-c3nccn3C)nn3cc(-c4ccn(C)n4)c(C)c23)n[nH]1 [Compound 252, N-(5-Methoxy-1H-pyrazol-3-yl)-5-methyl-2-(1-methyl-1H-imidazol-2-yl)-6-(1-methyl-1H-pyrazol-3-yl)pyrrolo[2,1-f][1,2,4]triazin-4-amine] |
| 510 to 1000 | – | COc1cc(Nc2nc(-c3nccn3C)nn3cc(-c4ccn(C)n4)c(C)c23)nn1C [Compound 253, N-(5-Methoxy-1-methyl-1H-pyrazol-3-yl)-5-methyl-2-(1-methyl-1H-imidazol-2-yl)-6-(1-methyl-1H-pyrazol-3-yl)pyrrolo[2,1-f][1,2,4]triazin-4-amine] |
| > 1000 | – | Cc1c(-c2ccn(C)n2)cn2nc(-c3nccn3C)nc(Nc3cc(OC(F)F)n(C)n3)c12 [Compound 254, N-(5-(Difluoromethoxy)-1-methyl-1H-pyrazol-3-yl)-5-methyl-2-(1-methyl-1H-imidazol-2-yl)-6-(1-methyl-1H-pyrazol-3-yl)pyrrolo[2,1-f][1,2,4]triazin-4-amine] |
| < 150 | 1 to 10 | Cc1cc(Nc2nc(-c3nccn3C)nn3cc(-c4ccn(C)n4)c(C)c23)n[nH]1 [Compound 255, 5-Methyl-2-(1-methyl-1H-imidazol-2-yl)-6-(1-methyl-1H-pyrazol-3-yl)-N-(5-methyl-1H-pyrazol-3-yl)pyrrolo[2,1-f][1,2,4]triazin-4-amine] |
| > 1000 | – | Cc1c(-c2ccn(C)n2)cn2nc(-c3nccn3C)nc(Nc3cc[nH]n3)c12 [Compound 256, 5-Methyl-2-(1-methyl-1H-imidazol-2-yl)-6-(1-methyl-1H-pyrazol-3-yl)-N-(1H-pyrazol-3-yl)pyrrolo[2,1-f][1,2,4]triazin-4-amine] |
| 150 to 500 | – | Cc1c(-c2ccn(C)n2)cn2nc(-c3nccn3C)nc(Nc3cc(C4CCC4)[nH]n3)c12 [Compound 257, N-(5-Cyclobutyl-1H-pyrazol-3-yl)-5-methyl-2-(1-methyl-1H-imidazol-2-yl)-6-(1-methyl-1H-pyrazol-3-yl)pyrrolo[2,1-f][1,2,4]triazin-4-amine] |
| > 1000 | – | Cc1c(-c2ccn(C)n2)cn2nc(-c3nccn3C)nc(Nc3cc(C(F)F)[nH]n3)c12 [Compound 258, N-(5-(Difluoromethyl)-1H-pyrazol-3-yl)-5-methyl-2-(1-methyl-1H-imidazol-2-yl)-6-(1-methyl-1H-pyrazol-3-yl)pyrrolo[2,1-f][1,2,4]triazin-4-amine] |
| > 1000 | – | Cc1c(-c2ccn(C)n2)cn2nc(-c3nccn3C)nc(Nc3cc(C(F)(F)F)[nH]n3)c12 [Compound 259, 5-Methyl-2-(1-methyl-1H-imidazol-2-yl)-6-(1-methyl-1H-pyrazol-3-yl)-N-(5-(trifluoromethyl)-1H-pyrazol-3-yl)pyrrolo[2,1-f][1,2,4]triazin-4-amine] |
| > 1000 | – | CCOc1cc(Nc2nc(-c3nccn3C)nn3cc(-c4ccn(C)n4)c(C)c23)n[nH]1 [Compound 260, N-(5-Ethoxy-1H-pyrazol-3-yl)-5-methyl-2-(1-methyl-1H-imidazol-2-yl)-6-(1-methyl-1H-pyrazol-3-yl)pyrrolo[2,1-f][1,2,4]triazin-4-amine] |
| > 1000 | – | Cc1c(-c2ccn(C)n2)cn2nc(-c3nccn3C)nc(-n3[nH]c(N)cc3=O)c12 [Compound 261, 5-Amino-2-(5-methyl-2-(1-methyl-1H-imidazol-2-yl)-6-(1-methyl-1H-pyrazol-3-yl)pyrrolo[2,1-f][1,2,4]triazin-4-yl)-1,2-dihydro-3H-pyrazol-3-one] |
| > 1000 | – | Cc1c(-c2ccn(C)n2)cn2nc(-c3nccn3C)nc(Oc3cc(N)[nH]n3)c12 [Compound 262, 3-((5-Methyl-2-(1-methyl-1H-imidazol-2-yl)-6-(1-methyl-1H-pyrazol-3-yl)pyrrolo[2,1-f][1,2,4]triazin-4-yl)oxy)-1H-pyrazol-5-amine] |
